Data taken from US9198918B2, “Benzoxazepin PI3K inhibitor compounds and methods of use” (Genentech, Inc., priority 2009, dated 2015).
pEC50, pIC50: −log10 of the molar value.

Legend:
PI3K alpha (p110 alpha) = target: T1, PI3K alpha (p110 alpha) (Homo sapiens, UniProt P42336); test: PI3K p110α (alpha) binding assay (Example 901); conditions: read-out: IC50, inhibition of PI3K alpha (binding to p110 alpha)
T1 construct: purchased Upstate Cell Signaling Solutions, Charlottesville, Va
Excerpt: Determination of the PI3 kinase activity of a Formula I compound is possible by a number of direct and indirect detection methods.

AU565 = test: CellTiter-Glo cell proliferation assay, AU565; format: cell-based; conditions: Homo sapiens, Breast, mutation status WT
Method: (§1) Efficacy of Formula I compounds was measured by a cell proliferation assay employing the following protocol (Promega Corp. Technical Bulletin TB288; Mendoza et al (2002) Cancer Res. 62:5485-5488):
(§2) 1. An aliquot of 100 μl of cell culture containing about 104 cells (PC3, Detroit562, or MDAMB361.1) in medium was deposited in each well of a 384-well, opaque-walled plate.
(§3) 2. Control wells were prepared containing medium and without cells.
(§4) 3. The compound was added to the experimental wells and incubated for 3-5 days.
(§5) 4. The plates were equilibrated to room temperature for approximately 30 minutes.
(§6) 5. A volume of CellTiter-Glo Reagent equal to the volume of cell culture medium present in each well was added.
(§7) 6. The contents were mixed for 2 minutes on an orbital shaker to induce cell lysis.
(§8) 7. The plate was incubated at room temperature for 10 minutes to stabilize the luminescence signal.
(§9) 8. Luminescence was recorded and reported in graphs as RLU=relative luminescence units.
(§10) Alternatively, cells were seeded at optimal density in a 96 well plate and incubated for 4 days in the presence of test compound. Alamar Blue™ was subsequently added to the assay medium, and cells were incubated for 6 hr before reading at 544 nm excitation, 590 nm emission. EC50 values were calculated using a sigmoidal dose response curve fit. The term EC50 refers to the half maximal effective concentration and is the concentration at which a drug induces a response halfway between the baseline and maximum after some specified exposure time. It is commonly used as a measure of drug potency.
(§11) The anti-proliferative effects of Formula I exemplary compounds were measured by the CellTiter-Glo® Assay against various tumor cell lines, including the following: […]

CAL120 = test: CellTiter-Glo cell proliferation assay, CAL120; format: cell-based; conditions: Homo sapiens, CAL-120, Breast, mutation status WT
Method: as §1, §2, §3, §4, §5, §6
6. […]
as §8, §9
(§12) Alternatively, cells were seeded at optimal density in a 96 well plate and incubated for 4 days in the presence of test compound. Alamar Blue™ was subsequently added to the assay medium, and cells were incubated for 6 hr before reading at 544 nm excitation, 590 nm emission. EC50 values were calculated using a sigmoidal dose response curve fit. […]
as §11

CAL51 = test: CellTiter-Glo cell proliferation assay, CAL51; format: cell-based; conditions: Homo sapiens, CAL-51, Breast, mutation status PI3K/PTEN
Method: as §1, §2, §3, §4, §5, §6
6. […]
as §8, §9, §12, §11

EFM19-2A = test: CellTiter-Glo cell proliferation assay, EFM19-2A; format: cell-based; conditions: EFM-192A, Breast, mutation status WT
Method: as §1, §2, §3, §4, §5, §6
6. […]
as §8, §9, §12, §11

EVSA-T = test: CellTiter-Glo cell proliferation assay, EVSA-T; format: cell-based; conditions: Homo sapiens, Breast, mutation status PTEN
Method: as §1, §2, §3, §4, §5, §6, §7, §8, §9, §10, §11

HCC1954 = test: CellTiter-Glo cell proliferation assay, HCC1954; format: cell-based; conditions: Homo sapiens, Breast, mutation status PI3K
Method: as §1, §2, §3, §4, §5, §6, §7, §8, §9, §10, §11

KPL4 = test: CellTiter-Glo cell proliferation assay, KPL4; format: cell-based; conditions: Breast, mutation status PI3K
Method: as §1, §2, §3, §4, §5, §6, §7, §8, §9, §10, §11

MCF7 = test: CellTiter-Glo cell proliferation assay, MCF7; format: cell-based; conditions: Homo sapiens, Breast, mutation status PI3K
Method: as §1, §2, §3, §4, §5, §6
6. […]
as §8, §9, §12, §11

MDA-MB-231 = test: CellTiter-Glo cell proliferation assay, MDA-MB-231; format: cell-based; conditions: Homo sapiens, Breast, mutation status K-RAS
Method: as §1, §2, §3, §4, §5, §6
6. […]
as §8, §9, §12, §11

MDA-MB-361.1 = test: CellTiter-Glo cell proliferation assay, MDA-MB-361.1; format: cell-based; conditions: Breast, mutation status PI3K
Method: as §1, §2, §3, §4, §5, §6, §7, §8, §9, §10, §11

MFM223 = test: CellTiter-Glo cell proliferation assay, MFM223; format: cell-based; conditions: Homo sapiens, MFM-223, Breast, mutation status PI3K
Method: as §1, §2, §3, §4, §5, §6, §7, §8, §9, §10, §11

SKBR3 = test: CellTiter-Glo cell proliferation assay, SKBR3; format: cell-based; conditions: Homo sapiens, SK-BR-3, Breast, mutation status WT
Method: as §1, §2, §3, §4, §5, §6
6. […]
as §8, §9, §12, §11

T47D = test: CellTiter-Glo cell proliferation assay, T47D; format: cell-based; conditions: Homo sapiens, Breast, mutation status PI3K
Method: as §1, §2, §3, §4, §5, §6, §7, §8, §9, §10, §11

Colo205 = test: CellTiter-Glo cell proliferation assay, Colo205; format: cell-based; conditions: Homo sapiens, COLO 205, Colon, mutation status B-Raf
Method: as §1, §2, §3, §4, §5, §6
6. […]
as §8, §9, §12, §11

HCT116 = test: CellTiter-Glo cell proliferation assay, HCT116; format: cell-based; conditions: Homo sapiens, HCT-116, Colon, mutation status PI3K/KRAS
Method: as §1, §2, §3, §4, §5, §6
6. […]
as §8, §9, §12, §11

RKO = test: CellTiter-Glo cell proliferation assay, RKO; format: cell-based; conditions: Homo sapiens, Colon, mutation status PI3K
Method: as §1, §2, §3, §4, §5, §6
6. […]
as §8, §9, §12, §11

LN229 = test: CellTiter-Glo cell proliferation assay, LN229; format: cell-based; conditions: Homo sapiens, LN-229, Glioma, mutation status PI3K
Method: as §1, §2, §3, §4, §5, §6
6. […]
as §8, §9, §12, §11

U87MG = test: CellTiter-Glo cell proliferation assay, U87MG; format: cell-based; conditions: Homo sapiens, U-87 MG, Glioma, mutation status PTEN
Method: as §1, §2, §3, §4, §5, §6
6. […]
as §8, §9, §12, §11

H1703 = test: CellTiter-Glo cell proliferation assay, H1703; format: cell-based; conditions: Homo sapiens, NCI-H1703, Lung(NSCLC), mutation status WT
Method: as §1, §2, §3, §4, §5, §6
6. […]
as §8, §9, §12, §11

H2122 = test: CellTiter-Glo cell proliferation assay, H2122; format: cell-based; conditions: Homo sapiens, NCI-H2122, Lung(NSCLC), mutation status K-RAS
Method: as §1, §2, §3, §4, §5, §6, §7, §8, §9, §10, §11

537MEL = test: CellTiter-Glo cell proliferation assay, 537MEL; format: cell-based; conditions: Homo sapiens, Melanoma, mutation status PTEN
Method: as §1, §2, §3, §4, §5, §6
6. […]
as §8, §9, §12, §11

A2058 = test: CellTiter-Glo cell proliferation assay, A2058; format: cell-based; conditions: Homo sapiens, Melanoma, mutation status PTEN
Method: as §1, §2, §3, §4, §5, §6
6. […]
as §8, §9, §12, §11

A375 = test: CellTiter-Glo cell proliferation assay, A375; format: cell-based; conditions: Homo sapiens, A-375, Melanoma, mutation status B-Raf
Method: as §1, §2, §3, §4, §5, §6
6. […]
as §8, §9, §12, §11

IGROV1 = test: CellTiter-Glo cell proliferation assay, IGROV1; format: cell-based; conditions: Homo sapiens, IGROV-1, Ovarian, mutation status PI3K
Method: as §1, §2, §3, §4, §5, §6
6. […]
as §8, §9, §12, §11

TOV21GX1 = test: CellTiter-Glo cell proliferation assay, TOV21GX1; format: cell-based; conditions: Ovarian, mutation status PI3K/PTEN
Method: as §1, §2, §3, §4, §5, §6
6. […]
as §8, §9, §12, §11

PC3 = test: CellTiter-Glo cell proliferation assay, PC3; format: cell-based; conditions: Homo sapiens, PC-3, Prostate, mutation status PTEN
Method: as §1, §2, §3, §4, §5, §6, §7, §8, §9, §10, §11

T1 sequence (P42336 whole entry): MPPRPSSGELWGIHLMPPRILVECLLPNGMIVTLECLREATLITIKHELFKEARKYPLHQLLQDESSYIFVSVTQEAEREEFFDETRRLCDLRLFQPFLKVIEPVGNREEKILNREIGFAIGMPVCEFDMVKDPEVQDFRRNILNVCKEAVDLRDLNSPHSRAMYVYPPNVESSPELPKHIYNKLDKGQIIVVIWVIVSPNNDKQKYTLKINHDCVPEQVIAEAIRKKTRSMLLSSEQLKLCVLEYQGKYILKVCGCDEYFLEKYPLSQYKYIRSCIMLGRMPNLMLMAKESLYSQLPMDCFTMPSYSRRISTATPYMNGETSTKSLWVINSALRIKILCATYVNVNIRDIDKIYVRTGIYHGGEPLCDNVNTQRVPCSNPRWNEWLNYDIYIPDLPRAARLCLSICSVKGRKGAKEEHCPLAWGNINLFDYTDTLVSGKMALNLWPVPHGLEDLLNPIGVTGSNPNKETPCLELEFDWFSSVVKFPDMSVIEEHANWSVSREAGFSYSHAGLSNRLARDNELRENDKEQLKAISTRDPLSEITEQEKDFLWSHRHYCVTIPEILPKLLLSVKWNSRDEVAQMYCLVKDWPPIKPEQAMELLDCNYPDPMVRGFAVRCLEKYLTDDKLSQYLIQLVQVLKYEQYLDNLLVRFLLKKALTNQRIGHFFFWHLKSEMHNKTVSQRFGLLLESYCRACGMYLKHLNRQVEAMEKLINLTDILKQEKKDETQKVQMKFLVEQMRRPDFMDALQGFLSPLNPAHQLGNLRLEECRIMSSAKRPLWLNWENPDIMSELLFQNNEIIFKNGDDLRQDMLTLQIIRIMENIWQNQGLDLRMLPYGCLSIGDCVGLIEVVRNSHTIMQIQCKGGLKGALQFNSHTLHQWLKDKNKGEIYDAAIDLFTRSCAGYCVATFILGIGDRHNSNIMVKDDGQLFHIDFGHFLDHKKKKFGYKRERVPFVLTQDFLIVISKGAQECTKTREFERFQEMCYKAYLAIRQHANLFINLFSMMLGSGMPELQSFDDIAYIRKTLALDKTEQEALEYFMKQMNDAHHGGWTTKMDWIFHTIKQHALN
T1 sequence (P27986 whole entry partner): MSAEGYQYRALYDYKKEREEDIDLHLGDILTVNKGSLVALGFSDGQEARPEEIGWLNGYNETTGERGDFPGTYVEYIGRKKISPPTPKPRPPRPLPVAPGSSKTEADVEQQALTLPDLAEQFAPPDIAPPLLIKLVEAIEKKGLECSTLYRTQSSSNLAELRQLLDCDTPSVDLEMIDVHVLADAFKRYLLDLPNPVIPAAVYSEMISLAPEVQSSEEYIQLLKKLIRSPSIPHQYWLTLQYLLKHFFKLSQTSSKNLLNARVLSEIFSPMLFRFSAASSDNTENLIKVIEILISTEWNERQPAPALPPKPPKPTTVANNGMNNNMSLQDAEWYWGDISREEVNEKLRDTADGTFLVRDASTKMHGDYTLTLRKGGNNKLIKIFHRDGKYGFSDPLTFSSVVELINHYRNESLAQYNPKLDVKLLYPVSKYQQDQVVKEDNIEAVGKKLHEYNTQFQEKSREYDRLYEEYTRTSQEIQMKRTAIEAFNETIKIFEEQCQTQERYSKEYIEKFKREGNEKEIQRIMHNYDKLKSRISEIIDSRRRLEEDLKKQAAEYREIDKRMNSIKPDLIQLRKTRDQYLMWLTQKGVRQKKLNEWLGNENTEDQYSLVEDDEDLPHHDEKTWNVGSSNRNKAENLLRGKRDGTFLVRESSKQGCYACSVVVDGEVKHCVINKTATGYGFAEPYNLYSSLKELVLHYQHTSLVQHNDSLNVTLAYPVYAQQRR

pIC50 (PI3K alpha (p110 alpha)): 9.74 | pEC50 (HCC1954): 6.77 | pEC50 (MCF7): 6.92 | pEC50 (MDA-MB-231): ≤ 5.00 | pEC50 (MDA-MB-361.1): 6.67 | pEC50 (SKBR3): 6.84 | pEC50 (T47D): 6.91 | pEC50 (Colo205): 6.59 | pEC50 (HCT116): 5.99 | pEC50 (U87MG): 6.10 | pEC50 (H1703): 6.65 | pEC50 (H2122): 6.29 | pEC50 (A375): ≤ 5.00 | pEC50 (PC3): 6.11
Compound: CC(C)n1ncnc1-c1cn2c(n1)-c1ccc(-c3cnn(CC(C)(C)O)c3)cc1OCC2 [compound 180, 1-(4-(2-(1-isopropyl-1H-1,2,4-triazol-5-yl)-5,6-dihydrobenzo[f]imidazo[1,2-d][1,4]oxazepin-9-yl)-1H-pyrazol-1-yl)-2-methylpropan-2-ol]
pEC50 (AU565): 6.64 | pEC50 (CAL120): 5.67 | pEC50 (CAL51): 6.17 | pEC50 (EFM19-2A): 6.84 | pEC50 (EVSA-T): 5.69 | pEC50 (KPL4): 7.41 | pEC50 (MFM223): 6.36 | pEC50 (RKO): 5.60 | pEC50 (LN229): 6.06 | pEC50 (537MEL): 5.61 | pEC50 (A2058): ≤ 5.00 | pEC50 (IGROV1): 7.22 | pEC50 (TOV21GX1): 5.44
